Source: US20240114903A1, “SYNERGISTIC MIXTURES COMPRISING PYRETHRUM FOR ARTHROPOD TOXICITY AND REPELLENCY” (University of Florida Research Foundation, Incorporated, priority 2021, published 2024)
Counter-ions that a name gives are not always drawn. Like-named read-outs stand apart in the source and are kept apart here.

Tests used:
[1] = tested on: female Aedes aegypti mosquitoes; assay type: in vivo; settings: screened individually at the sublethal concentrations used in the mixtures (TCA 10, TFA 50 μg/cm^2)
[2] = tested on: Orlando strain Aedes aegypti females; settings: essential oil or PBO alone, topical
Protocol: Plant essential oils were obtained from Berje, Inc. (Carteret, NJ, USA). […] Sucrose for sugar water was obtained from Domino (Baltimore, MD, USA).
Pupae were provided by the USDA prior to experiments.
J. Med. Entomol. […] Topical applications were performed by anesthetizing adult female mosquitoes on ice for 5 min, and then placing them on a cold, glass Petri dish to prevent reanimation. A Whatman No. 2 filter paper was used to prevent mosquitoes from coming in contact with excess condensation. A 0.2 μL volume of each treatment was applied to the pronotum of each mosquito using a Hamilton (Reno, NV, USA) repeating applicator with a gastight Hamilton syringe and placed in 470 mL deli paper cups. […] Ten mosquitoes were treated for each concentration representing one replicate, and at least three different cohorts of mosquitoes were used for each concentration in an effort to control for biological variability in the mosquitoes produced by the Orlando colony. A cohort was defined as a distinct rearing group (i.e., adult mosquitoes obtained from distinct batches of eggs placed in water to initiate development each week). Controls were performed using the vehicle, ethanol. Tulle fabric, fastened to the cup with a deli cup lid rim (center removed), was used to keep mosquitoes from escaping. Deli cups containing ten treated mosquitoes per concentration per replicate were placed in an incubator for the remainder of the experimental interval and kept at the same temperature and light cycle as during rearing. Knockdown, defined as the inability to fly or maintain normal standing posture, was recorded at 1 h, and mortality was recorded at 24 h. Mortality was defined as no movement, even after gently tapping the cup several times to assess response.
VI. Potentiation and antagonism of organophosphorus and carbamate insecticides. Econ. Entomol. […] To compare effects at discrete doses to one another or between those and control, an ANOVA (α=0.05) with a Tukey's post-test was used with an α value of 0.05.

Compound	toxicity by themselves [1]	1 h % Knockdown ± SE, Synergist ([2]; 2 μg/insect) [%]	24 h % Mortality ± SE, Synergist ([2]; 2 μg/insect) [%]	1 h % Knockdown ± SE, Synergist ([2]; 10 μg/insect) [%]	24 h % Mortality ± SE, Synergist ([2]; 10 μg/insect, listed as Piperonyl butoxide (PBO))
CC(C)=CC1C(C(=O)O)C1(C)C (stereo not drawn) [TCA, 1R-trans-chrysanthemic acid]	no toxicity	–	–	–	–
CC1(C)[C@H](C=C(Cl)Cl)[C@H]1C(=O)O [TFA, (1R,3S)-3-(2,2-dichloroethenyl)-2,2-dimethylcyclopropanecarboxylic acid]	no toxicity	–	–	–	–
CCCCOCCOCCOCc1cc2c(cc1CCC)OCO2 [PBO, Piperonyl butoxide]	–	6.7 ± 3.7	6.7 ± 2.4	21.7 ± 4	statistically significant
